Read-outs that look alike come from different tables or passages of the source.
Experiments:
Pseudomonas fluorescens = assay: Alternate Minimum Inhibitory Concentrations Test (Table 4), Ps.fl; type: cell-based; conditions: Table 4 alternate test, 250 ppm to 0.8 ppm in TSB, 72 hours, 30° C.; for MIC: Pseudomonas fluorescens, read-out: MIC Ps.fl
Experimental: The compounds of Examples 1-8, 12-26, 28-33, 36-37, 39-42, 44-109, 111-114, and 116-120 were subjected also to the following alternate biocidal activity test procedures with the results as indicated in Table 4.
The MIC test measures the viability of Pseudomonas fluorescens inoculum in TSB when exposed for 72 hours to varying concentrations of test compound.
A 125 μl aliquot of 10,000 ppm test compound in acetone was added to 4.88 ml of TSB to provide a 250 ppm solution. From this solution, 100 μL was transferred to the first row of two microtiter plate columns. Both replicates and five additional compounds were all serially diluted 1:1 to a final concentration of 0.8 ppm in TSB.
Inoculation was accomplished by diluting a 24 hr Ps fl culture, four mls per 36 mls of phosphate buffer solution. A Dynatech autoinoculator was used to transfer 1.5 μl of this cell suspension to the microtiter plates. The plates were incubated at 30° C. for 3 days before the lowest concentration at which no growth occurs was recorded in the database.

[1] = system: Erysiphe graminis (f. sp. tritici); assay: whole plant or invertebrate; type: in vivo
Piricularia oryzae = assay: whole plant or invertebrate; type: in vivo; conditions: for pest or weed control at 200 ppm: Pyricularia oryzae
[2] = system: Puccinia recondita (f. sp. tritici Races PKB and PLD); assay: whole plant or invertebrate; type: in vivo
[3] = system: Puccinia graminis (f. sp. tritici Race 15B-2); assay: whole plant or invertebrate; type: in vivo; conditions: Puccinia graminis, 336 h, read-out: % Control WSR
Phytophthora infestans = assay: whole plant or invertebrate; type: in vivo
[4] = system: Pseudoperonospora cubensis; assay: whole plant or invertebrate; type: in vivo
[5] = system: Pellicularia filamentosa (f. sp. sasiki); assay: whole plant or invertebrate; type: in vivo; conditions: for % Control RSB: in vivo
[6] = Blumeria graminis, read-out: % Control WPM
[7] = read-out: % Control RB, application rate 200 ppm
[8] = Puccinia recondita, 240 h, read-out: % Control WLR
[9] = Pseudoperonospora cubensis, in Cucumis sativus, 168 h, read-out: % Control CDM
[10] = Phytophthora infestans, in Solanum lycopersicum, 96 h, read-out: % Control TLB

Compound | MIC (Pseudomonas fluorescens) | pest or weed control at 200 ppm (Piricularia oryzae; [7]) | pest or weed control at 200 ppm [1, 6] | pest or weed control at 200 ppm [2, 8] | pest or weed control at 200 ppm [4, 9] | pest or weed control at 200 ppm ([5]; 120 h, read-out: % Control RSB) | pest or weed control at 200 ppm (Phytophthora infestans; [10]) | further results
CCCCCCCCNC(=O)/C=C\SC(=O)c1ccc([N+](=O)[O-])cc1 [Compound 46, N-octyl-cis-3-[(4-nitrobenzoyl)thio]acrylamide] | > 250 µg/mL | 75% |  |  |  |  |  | pest or weed control at 100 ppm [1, 6]: 0%; pest or weed control at 25 ppm [2, 8]: 80%; pest or weed control at 200 ppm [3]: 100%; pest or weed control at 100 ppm (Phytophthora infestans; Phytophthora infestans, in Solanum lycopersicum, 96 h, read-out: % Control TLB, application rate 100 ppm): 95%; pest or weed control at 50 ppm [4, 9]: 99%
CCCCCCCCNC(=O)/C=C\SC(=O)c1ccc([N+](=O)[O-])c([N+](=O)[O-])c1 [Compound 112, N-octyl-cis-3-[(3,4-dinitrobenzoyl)thio]acrylamide] | > 250 µg/mL | 0% | 0% | 50% | 99% |  |  | pest or weed control at 100 ppm [3]: 50%; pest or weed control at 100 ppm (Phytophthora infestans; [10]): 90%
CCCCCCCCNC(=O)/C=C\SC(=O)CCCC(=O)OC [Compound 85, N-octyl-cis-3-[(4-methoxycarbonylbutanoyl)thio]acrylamide] | > 250 µg/mL | 90% | 0% | 80% | 70% | 0% | 90% | 
CCCCC/C=C/C(=O)S/C=C\C(=O)NCCCCCCCC [Compound 92, N-octyl-cis-3-[(trans-2-octenoyl)thio]acrylamide] | > 250 µg/mL |  |  |  | 85% | 0% | 90% | pest or weed control at 50 ppm [1, 6]: 50%; pest or weed control at 200 ppm (Piricularia oryzae; read-out: % Control RB): 70%; pest or weed control at 50 ppm [2, 8]: 50%
C=CCCC(=O)S/C=C\C(=O)NCCCCCCCC [Compound 83, N-octyl-cis-3-[(4-pentenoyl)thio]acrylamide] | > 250 µg/mL | 50% | 0% | 50% | 95% | 0% | 90% | 
CCCCCCCCNC(=O)/C=C\SC(=O)CC=Cc1ccccc1 [Compound 88, N-octyl-cis-3-[(4-phenylbut-3-enoyl)thio]acrylamide] | > 250 µg/mL | 90% | 0% |  | 70% |  | 90% | pest or weed control at 50 ppm [2, 8]: 80%; pest or weed control at 100 ppm [3]: 0%
CC(=O)S/C=C\C(=O)NC1CCCCCCCCCCC1 [Compound 90, N-cyclododecyl-cis-3-(acetylthio)acrylamide] | > 250 µg/mL | 0% |  | 0% | 85% | 0% |  | pest or weed control at 50 ppm [1, 6]: 0%; pest or weed control at 200 ppm (Phytophthora infestans; Phytophthora infestans, in Solanum lycopersicum, 96 h, read-out: % Control TLB, application rate 200 ppm): 0%
CCCCCCCCNC(=O)/C=C\SC(=O)CC1CCCCC1 [Compound 94, N-octyl-cis-3-(cyclohexaneacetylthio)acrylamide] | > 250 µg/mL | 90% | 85% | 50% | 70% | 0% | 80% | 
N-octyl-cis-3-(ferrocenecarbonylthio)acrylamide [Compound 81] |  |  |  |  |  |  |  | MIC Ps.fl (Pseudomonas fluorescens): > 250 Ppm; % Control WPM ([1]; in vivo): 85 % Control; % Control RSB [5]: 0 % Control; % Control RB (Piricularia oryzae; in vivo): 75 % Control; % Control WLR ([2]; in vivo): 25 % Control; % Control TLB (Phytophthora infestans; in vivo): 100 % Control; % Control CDM ([4]; in vivo): 0 % Control
CCCCCCCCNC(=O)/C=C\SC(=O)CCc1ccccc1 [Compound 91, N-octyl-cis-3-[(3-phenylpropanoyl)thio]acrylamide] |  |  |  | 25% | 70% |  | 80% | MIC Ps.fl (Pseudomonas fluorescens): > 250 Ppm; pest or weed control at 12 ppm [1, 6]: 85%; % Control RSB [5]: 0 % Control; pest or weed control at 200 ppm (Piricularia oryzae; read-out: % Control RB): 70%
CCCCCCCCNC(=O)/C=C\SC(=O)CC1CC(C(C)=O)C1(C)C (centres unmarked) [Compound 75] | > 250 µg/mL | 50% | 0% | 50% | 0% |  |  | pest or weed control at 12 ppm ([5]; 120 h, read-out: % Control RSB): 0%; pest or weed control at 50 ppm (Phytophthora infestans; [10]): 90%
